Reference: patent US12071425B2 (Genentech, Inc., priority 2018, dated 2024)
pIC50: −log10 of the molar value. Where a name gives a salt, the structure may show the parent alone.

Target: kinase domain of IRE1 alpha (His-tagged kinase dead construct KR, AA G547-L977, D688N) (Homo sapiens (Human), UniProt O75460, D688N)
Assay: IRE1α TR-FRET competition binding assay
Conditions: competition with Kinase Tracer 236, 0.1 μM; one hour at room temperature
Protocol: To determine the affinity of compound binding to the kinase domain of IRE1 alpha, a Time Resolved Fluorescence Resonance Energy Transfer (TR-FRET) competition assay was used. A His-tagged IRE1 alpha kinase dead construct containing the kinase and RNase domains (KR, AA G547-L977, D688N) was expressed in Sf9 insect cells. The purified protein (final concentration 0.006 μM micromolar) was pre-incubated with anti-His Europium labeled antibody (Life Technologies PV5596, final concentration 0.002 μM micromolar) for one hour at 4° C. in 1X TR-FRET Assay Buffer (50 mM HEPES, pH 7.5.10 mM MgCl2, 0.083 mM Brij 35, 1 mM DTT, and 0.1% bovine gamma globulin) prior to addition to test compounds. A fluorescent labeled probe based on an ATP competitive inhibitor (Kinase Tracer 236, Life Technologies PV5592) is added to a final concentration of 0.1 μM (micromolar). Reactions were carried out for one hour at room temperature in a final volume of 20 μL (microliter) in 384 well white ProxiPlates (Perkin Elmer 6008289). Binding of the tracer to the IRE1 protein alpha was detected in an Envision instrument (PerkinElmer) equipped with a TRF laser option and a LANCE/Delfia Dual/Bias D400/D630 mirror (Ex 347 nm, 1st Em 665 nm, 2nd Em 615 nm).
Exemplary compounds in Table A1 were tested in the IRE1α binding assays.

Chain of kinase domain of IRE1 alpha (His-tagged kinase dead construct KR, AA G547-L977, D688N) (O75460 547-977 D688N): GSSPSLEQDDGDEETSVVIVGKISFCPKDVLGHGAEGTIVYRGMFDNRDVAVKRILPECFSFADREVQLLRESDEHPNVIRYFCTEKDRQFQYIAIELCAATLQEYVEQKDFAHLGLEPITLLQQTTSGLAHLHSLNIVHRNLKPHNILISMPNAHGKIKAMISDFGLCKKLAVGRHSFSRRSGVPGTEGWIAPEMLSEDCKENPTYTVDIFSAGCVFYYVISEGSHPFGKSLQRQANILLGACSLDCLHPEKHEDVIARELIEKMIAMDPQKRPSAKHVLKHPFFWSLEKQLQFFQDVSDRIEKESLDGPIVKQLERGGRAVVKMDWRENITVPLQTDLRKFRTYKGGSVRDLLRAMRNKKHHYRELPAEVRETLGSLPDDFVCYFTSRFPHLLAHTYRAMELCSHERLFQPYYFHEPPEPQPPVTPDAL

| Compound | pIC50 |
| --- | --- |
| O=S(=O)(Cc1ccccc1)Nc1c(F)cc(Oc2ncccc2-c2ccnc(NC3CNCC(C(F)F)C3)n2)c(F)c1F (single isomer, unassigned) [Compound 303, N-(4-((3-(2-((5-(Difluoromethyl)piperidin-3-yl)amino)pyrimidin-4-yl)pyridin-2-yl)oxy)-2,3,6-trifluorophenyl)-1-phenylmethanesulfonamide] | 7.46 |
| CN(C)C1CCC(Nc2nccc(-c3cccnc3Oc3cc(F)c(NS(=O)(=O)Cc4ccccc4)c(F)c3F)n2)CC1F (single isomer, unassigned) [Compound 306, N-(4-((3-(2-((4-(Dimethylamino)-3-fluorocyclohexyl)amino)pyrimidin-4-yl)pyridin-2-yl)oxy)-2,3,6-trifluorophenyl)-1-phenylmethanesulfonamide] | 7.37 |
| CN(C)C1CCC(Nc2nccc(-c3cccnc3Oc3cc(F)c(NS(=O)(=O)Cc4ccccc4)c(F)c3F)n2)CC1F (single isomer, unassigned) [Compound 308, N-(4-((3-(2-((4-(Dimethylamino)-3-fluorocyclohexyl)amino)pyrimidin-4-yl)pyridin-2-yl)oxy)-2,3,6-trifluorophenyl)-1-phenylmethanesulfonamide] | 7.08 |
| COC1CNCC(Nc2nccc(-c3cccnc3Oc3cc(F)c(NS(=O)(=O)Cc4ccccc4)c(F)c3F)n2)C1 (single isomer, unassigned) [Compound 317, 1-Phenyl-N-(2,3,6-trifluoro-4-((3-(2-((5-methoxypiperidin-3-yl)amino)pyrimidin-4-yl)pyridin-2-yl)oxy)phenyl)methanesulfonamide] | 6.85 |
| O=S(=O)(Cc1ccccc1F)Nc1c(F)cc(Oc2ncccc2-c2ccnc(NC3CNCC(C4CC4)C3)n2)c(F)c1F (single isomer, unassigned) [Compound 325, N-(4-((3-(2-((5-Cyclopropylpiperidin-3-yl)amino)pyrimidin-4-yl)pyridin-2-yl)oxy)-2,3,6-trifluorophenyl)-1-(2-fluorophenyl)methanesulfonamide] | 7.66 |
| COCC1CNCC(Nc2nccc(-c3cccnc3Oc3cc(F)c(NS(=O)(=O)Cc4ccccc4)c(F)c3F)n2)C1 (single isomer, unassigned) [Compound 328, 1-Phenyl-N-(2,3,6-trifluoro-4-((3-(2-((5-(methoxymethyl)piperidin-3-yl)amino)pyrimidin-4-yl)pyridin-2-yl)oxy)phenyl)methanesulfonamide] | 7.96 |
| COCC1CNCC(Nc2nccc(-c3cccnc3Oc3cc(F)c(NS(=O)(=O)Cc4ccccc4)c(F)c3F)n2)C1 (single isomer, unassigned) [Compound 329, 1-Phenyl-N-(2,3,6-trifluoro-4-((3-(2-((5-(methoxymethyl)piperidin-3-yl)amino)pyrimidin-4-yl)pyridin-2-yl)oxy)phenyl)methanesulfonamide] | 7.92 |
| COCC1CNCC(Nc2nccc(-c3cccnc3Oc3cc(F)c(NS(=O)(=O)Cc4ccccc4)c(F)c3F)n2)C1 (single isomer, unassigned) [Compound 330, 1-Phenyl-N-(2,3,6-trifluoro-4-((3-(2-((5-(methoxymethyl)piperidin-3-yl)amino)pyrimidin-4-yl)pyridin-2-yl)oxy)phenyl)methanesulfonamide] | 7.06 |
| CC(C)(F)C1CNCC(Nc2nccc(-c3cccnc3Oc3cc(F)c(NS(=O)(=O)Cc4ccccc4)c(F)c3F)n2)C1 (single isomer, unassigned) [Compound 334, 1-Phenyl-N-(2,3,6-trifluoro-4-((3-(2-((5-(2-fluoropropan-2-yl)piperidin-3-yl)amino)pyrimidin-4-yl)pyridin-2-yl)oxy)phenyl)methanesulfonamide hydrochloride] | 8.01 |
| CC(C)(F)C1CNCC(Nc2nccc(-c3cccnc3Oc3cc(F)c(NS(=O)(=O)Cc4ccccc4)c(F)c3F)n2)C1 (single isomer, unassigned) [Compound 335, 1-Phenyl-N-(2,3,6-trifluoro-4-((3-(2-((5-(2-fluoropropan-2-yl)piperidin-3-yl)amino)pyrimidin-4-yl)pyridin-2-yl)oxy)phenyl)methanesulfonamide hydrochloride] | 6.48 |

Compounds with a higher pIC50, results first:

| pIC50 | Compound |
| --- | --- |
| 9.36 | O=S(=O)(Cc1ccccc1)Nc1c(F)cc(Oc2ncccc2-c2ccnc(NC3CNCC(C(F)F)C3)n2)c(F)c1F (single isomer, unassigned) [Compound 302, N-(4-((3-(2-((5-(Difluoromethyl)piperidin-3-yl)amino)pyrimidin-4-yl)pyridin-2-yl)oxy)-2,3,6-trifluorophenyl)-1-phenylmethanesulfonamide] |
| 9.51 | CN(C)C1CCC(Nc2nccc(-c3cccnc3Oc3cc(F)c(NS(=O)(=O)Cc4ccccc4)c(F)c3F)n2)CC1F (single isomer, unassigned) [Compound 307, N-(4-((3-(2-((4-(Dimethylamino)-3-fluorocyclohexyl)amino)pyrimidin-4-yl)pyridin-2-yl)oxy)-2,3,6-trifluorophenyl)-1-phenylmethanesulfonamide hydrochloride] |
| 8.92 | Cc1cc(NS(=O)(=O)C(C)c2ccccc2)c(F)c(F)c1Oc1ncccc1-c1ccnc(N[C@@H]2CNC[C@@H](F)C2)n1 (single isomer, unassigned) [Compound 313, hydrochloride] |
| 9.62 | Cc1cc(NS(=O)(=O)C(C)c2ccccc2)c(F)c(F)c1Oc1ncccc1-c1ccnc(N[C@@H]2CNC[C@@H](F)C2)n1 (single isomer, unassigned) [Compound 314] |
| 9.52 | COC1CNCC(Nc2nccc(-c3cccnc3Oc3cc(F)c(NS(=O)(=O)Cc4ccccc4)c(F)c3F)n2)C1 (single isomer, unassigned) [Compound 318, 1-Phenyl-N-(2,3,6-trifluoro-4-((3-(2-((5-methoxypiperidin-3-yl)amino)pyrimidin-4-yl)pyridin-2-yl)oxy)phenyl)methanesulfonamide] |
| 9.32 | COC1CNCC(Nc2nccc(-c3cccnc3Oc3cc(F)c(NS(=O)(=O)Cc4ccccc4)c(F)c3F)n2)C1 (single isomer, unassigned) [Compound 319, 1-Phenyl-N-(2,3,6-trifluoro-4-((3-(2-((5-methoxypiperidin-3-yl)amino)pyrimidin-4-yl)pyridin-2-yl)oxy)phenyl)methanesulfonamide] |
| 9.40 | O=S(=O)(Cc1ccccc1F)Nc1c(F)cc(Oc2ncccc2-c2ccnc(NC3CNCC(C4CC4)C3)n2)c(F)c1F (single isomer, unassigned) [Compound 324, N-(4-((3-(2-((5-Cyclopropylpiperidin-3-yl)amino)pyrimidin-4-yl)pyridin-2-yl)oxy)-2,3,6-trifluorophenyl)-1-(2-fluorophenyl)methanesulfonamide] |
| 9.21 | O=S(=O)(Cc1ccccc1F)Nc1c(F)cc(Oc2ncccc2-c2ccnc(NC3CNCC(C4CC4)C3)n2)c(F)c1F (single isomer, unassigned) [Compound 326, N-(4-((3-(2-((5-Cyclopropylpiperidin-3-yl)amino)pyrimidin-4-yl)pyridin-2-yl)oxy)-2,3,6-trifluorophenyl)-1-(2-fluorophenyl)methanesulfonamide] |
| 9.59 | O=S(=O)(Cc1ccccc1F)Nc1c(F)cc(Oc2ncccc2-c2ccnc(NC3CNCC(C4CC4)C3)n2)c(F)c1F (single isomer, unassigned) [Compound 327, N-(4-((3-(2-((5-Cyclopropylpiperidin-3-yl)amino)pyrimidin-4-yl)pyridin-2-yl)oxy)-2,3,6-trifluorophenyl)-1-(2-fluorophenyl)methanesulfonamide] |
| 9.09 | COCC1CNCC(Nc2nccc(-c3cccnc3Oc3cc(F)c(NS(=O)(=O)Cc4ccccc4)c(F)c3F)n2)C1 (single isomer, unassigned) [Compound 331, 1-Phenyl-N-(2,3,6-trifluoro-4-((3-(2-((5-(methoxymethyl)piperidin-3-yl)amino)pyrimidin-4-yl)pyridin-2-yl)oxy)phenyl)methanesulfonamide] |
| 9.38 | CC(C)(F)C1CNCC(Nc2nccc(-c3cccnc3Oc3cc(F)c(NS(=O)(=O)Cc4ccccc4)c(F)c3F)n2)C1 (single isomer, unassigned) [Compound 336, 1-Phenyl-N-(2,3,6-trifluoro-4-((3-(2-((5-(2-fluoropropan-2-yl)piperidin-3-yl)amino)pyrimidin-4-yl)pyridin-2-yl)oxy)phenyl)methanesulfonamide hydrochloride] |
| 8.59 | CC(F)(F)C1CNCC(Nc2nccc(-c3cccnc3Oc3cc(F)c(NS(=O)(=O)Cc4ccccc4)c(F)c3F)n2)C1 (single isomer, unassigned) [Compound 338, N-(4-((3-(2-((5-(1, l-Difluoroethyl)piperidin-3-yl)amino)pyrimidin-4-yl)pyridin-2-yl)oxy)-2,3,6-trifluorophenyl)-1-phenylmethanesulfonamide] |
| 9.62 | CC(F)(F)C1CNCC(Nc2nccc(-c3cccnc3Oc3cc(F)c(NS(=O)(=O)Cc4ccccc4)c(F)c3F)n2)C1 (single isomer, unassigned) [Compound 339, N-(4-((3-(2-((5-(1, l-Difluoroethyl)piperidin-3-yl)amino)pyrimidin-4-yl)pyridin-2-yl)oxy)-2,3,6-trifluorophenyl)-1-phenylmethanesulfonamide] |
